# In publication PMC9693145, “Optimization of Extraction Conditions and Cytotoxic Activity of Rapanone in Comparison to Its Homologue, Embelin” (Molecules, 2022):
# Like-named read-outs stand apart in the source and are kept apart here.
# Columns and labels:
# Du145 prostate carcinoma = assay: LDH cytotoxicity assay, Du145 cells; assay type: cell-based, human; conditions: for mean percentage of dead Du145 cells: 10 μg/mL, 24 h of incubation; for IC50: Homo sapiens, DU-145, LDH assay
# Description: (§1) In the study, […] human cancer and normal cell lines were used. They were grouped as follows: prostate panel (prostate carcinoma Du145, derived from the metastatic site: brain, ATCC HTB-81; grade IV prostate carcinoma, PC3, derived from the metastatic site: bone, ATCC CRL-1435; prostate epithelial cells PNT2, ECACC 95012613), gastrointestinal panel (colorectal adenocarcinomas Caco2, ATCC HTB-37, and HT29, ATCC HTB-38; hepatocellular carcinoma HepG2, ATCC HB-8065), thyroid panel (follicular thyroid carcinoma FTC133, ECACC 94060901; undifferentiated thyroid carcinoma 8505C, ECACC 94090184). Cells were grown at 37 °C in a 5% CO2 atmosphere, with relative humidity, with culture medium DMEM/F12 (PC3, PNT2, FTC133, 8505C, HT29, and HepG2), DMEM low glucose (Du145), MEM with NEAA (Caco-2), supplemented with 10% fetal bovine serum (FBS), and appropriate antibiotics. Cells were seeded in 96-well plates (1.5 × 10^4 cells/well) and kept for 24 and 48 h. Subsequently, the culture medium was replaced with a fresh medium containing different concentrations of the tested substances from 4 to 50 µg/mL and the cells were incubated for 24 and 48 h. As a reference drug, doxorubicin was used. Cell viability was examined using the LDH assay, as previously described. The absorbance was measured at 490 nm (the reference wavelength 600 nm) with a Biotek Synergy microplate reader. Each experiment was performed in triplicate. Cytotoxicity of the samples was measured using the formula: %cytotoxicity=Asample−Aspont/Amax−Aspont×100 where: • Asample is the absorbance value for cells treated with the tested substances • Aspont is the value for spontaneous LDH release • Amax the value in cells lysed in the presence of Triton X100 • The half-maximal effective concentration value IC50, defined as the substance concentration necessary to obtain 50% of dead cells, was determined.
# (§2) In the study evaluating optimization extraction conditions, the outlying values of rapanone amount in each set of parameters were removed. Thirty-two outlier values were determined using “Extreme Outlier” software (MP System Co., Kraków, Poland), with an algorithm implemented by Shoemaker and based on a robust technique proposed by Tukey. The ANOVA procedure was used to assess the impact of changing individual parameters on the amount of rapanone obtained in various extraction systems. The same statistical procedure was used to determine the regression coefficients of the primary parameters in the respective multinomial models (describing the relationship between the amount of rapanone and the experimental conditions) and to establish the statistical significance of these coefficients. […] The results with the highest number of differences were chosen as representing the combinations of parameters, (i.e., the particular variants of experimental systems), that were used giving the highest efficacy of the extraction process. IC50 values in cytotoxicity analysis were estimated using GraphPad 5 Prism. A comparison of the means in a cytotoxicity analysis was performed using one-way ANOVA followed by a posthoc Tukey test.
# PC3 = conditions: cited from earlier work
# [1] = test system: follicular thyroid carcinoma FTC133; assay: LDH cytotoxicity assay, FTC133 cells; assay type: cell-based; conditions: Homo sapiens
# Description: as §1
# (§3) In the study evaluating optimization extraction conditions, the outlying values of rapanone amount in each set of parameters were removed. Thirty-two outlier values were determined using “Extreme Outlier” software (MP System Co., Kraków, Poland), with an algorithm implemented by Shoemaker and based on a robust technique proposed by Tukey. The ANOVA procedure was used to assess the impact of changing individual parameters on the amount of rapanone obtained in various extraction systems. The same statistical procedure was used to determine the regression coefficients of the primary parameters in the respective multinomial models (describing the relationship between the amount of rapanone and the experimental conditions) and to establish the statistical significance of these coefficients. […]
# [2] = parameters: method as in PMID 26252009; conditions: EZ-CyTox kit, cell line not stated, cited from earlier work
# [3] = test system: PNT2 prostate epithelial cells; assay: LDH cytotoxicity assay, PNT2 cells; assay type: cell-based, human; conditions: for mean percentage of dead PNT2 cells: 10 μg/mL, 24 h of incubation; for IC50: Homo sapiens, PNT2 normal prostate epithelial cells, LDH assay
# Description: as §1, §2
# [4] = test system: HT29 colorectal adenocarcinoma; assay: LDH cytotoxicity assay, HT29 cells; assay type: cell-based; conditions: Homo sapiens
# Description: as §1, §2
# HT29 cells = conditions: cited from earlier work
# [5] = test system: undifferentiated thyroid carcinoma 8505C; assay: LDH cytotoxicity assay, 8505C cells; assay type: cell-based; conditions: Homo sapiens
# Description: as §1, §2
# [6] = test system: Caco-2 colorectal adenocarcinoma; assay: LDH cytotoxicity assay, Caco-2 cells; assay type: cell-based, human; conditions: for IC50: Homo sapiens
# Description: as §1, §2
# [7] = test system: PC3 grade IV prostate carcinoma; assay: LDH cytotoxicity assay, PC3 cells; assay type: cell-based; conditions: Homo sapiens
# Description: as §1, §2
# [8] = test system: HepG2 hepatocellular carcinoma; assay: LDH cytotoxicity assay, HepG2 cells; assay type: cell-based; conditions: Homo sapiens
# Description: as §1, §3
# Du145 = test system: Du145; parameters: method as in earlier work; conditions: castration-resistant prostate cancer cells Du145; read-out: IC50 inhibition of proliferation, Du145; cited from earlier work
# [9] = Du145, 24 h incubation, read-out: IC50 Du145 24 h
# [10] = Du145, 48 h incubation, read-out: IC50 Du145 48 h
# [11] = FTC-133, FTC133, 24 h incubation, read-out: IC50 FTC133 24 h
# [12] = FTC-133, FTC133, 48 h incubation, read-out: IC50 FTC133 48 h
# [13] = 24 h incubation, read-out: IC50 PNT2 24 h
# [14] = 48 h incubation, read-out: IC50 PNT2 48 h
# [15] = HT-29, HT29, 24 h incubation, read-out: IC50 HT29 24 h
# [16] = HT-29, HT29, 48 h incubation, read-out: IC50 HT29 48 h
# [17] = 24 h incubation, read-out: IC50 8505C 24 h
# [18] = 48 h incubation, read-out: IC50 8505C 48 h
# [19] = Caco-2, 24 h, Caco-2, 24 h incubation, read-out: IC50 Caco-2 24 h
# [20] = Caco-2, 48 h, Caco-2, 48 h incubation, read-out: IC50 Caco-2 48 h
# [21] = PC-3, PC3, 24 h incubation, read-out: IC50 PC3 24 h
# [22] = PC-3, PC3, 48 h incubation, read-out: IC50 PC3 48 h
# [23] = HepG2, 24 h incubation, read-out: IC50 HepG2 24 h
# [24] = HepG2, 48 h incubation, read-out: IC50 HepG2 48 h
SMILES,mean percentage of dead Du145 cells (Du145 prostate carcinoma),IC50 (Du145 prostate carcinoma; [9]),IC50 (Du145 prostate carcinoma; [10]),"IC50 [1, 11]","IC50 [1, 12]",mean percentage of dead PNT2 cells [3],"IC50 [3, 13]","IC50 [3, 14]","IC50 [4, 15]","IC50 [4, 16]","IC50 [5, 17]","IC50 [5, 18]","IC50 [6, 19]","IC50 [6, 20]","IC50 [7, 21]","IC50 [7, 22]","IC50 [8, 23]","IC50 [8, 24]",also measured
CCCCCCCCCCCC1=C(O)C(=O)C=C(O)C1=O [Embelin],61.67%,8.02 µg/mL,4.18 µg/mL,10.5 µg/mL,6.48 µg/mL,49.00%,10.1 µg/mL,4.61 µg/mL,24.7 µg/mL,13.7 µg/mL,18.9 µg/mL,13.8 µg/mL,6.12 µg/mL,3.37 µg/mL,9.27 µg/mL,5.24 µg/mL,16 µg/mL,6.77 µg/mL,"IC50 (PC3; castration-resistant prostate cancer cells PC3, read-out: IC50 inhibition of proliferation, PC3): 13.6 µM; IC50 ([2]; 24 h, read-out: IC50 after 24 h (Park et al.)): > 200 µM; IC50 ([2]; 48 h, read-out: IC50 after 48 h (Park et al.)): 91.6 µM; IC50 in HT29 cells (Sumalatha) (HT29 cells; HT29): 35 µg/mL; IC50 (Du145): 21.3 µM"
CCCCCCCCCCCCCC1=C(O)C(=O)C=C(O)C1=O [Rapanone],82.33%,7.68 µg/mL,5.07 µg/mL,6.01 µg/mL,4.42 µg/mL,9.30%,16.7 µg/mL,12.7 µg/mL,16.9 µg/mL,11.7 µg/mL,7.84 µg/mL,5.5 µg/mL,8.76 µg/mL,5.66 µg/mL,6.5 µg/mL,4.92 µg/mL,36.3 µg/mL,16.7 µg/mL,"IC50 reported by Cordero et al., converted (HT29 cells; HT29 (by context), 29.4 μM converted to μg/mL): 9.3 µg/mL; IC50 (HT29 cells; HT29 (by context), read-out: IC50 reported by Cordero et al.): 29.4 µM; IC50 Caco-2 24 h ([6]; Caco-2, 24 h incubation): 8.79 µg/mL"
COc1cccc2c1C(=O)c1c(O)c3c(c(O)c1C2=O)C[C@@](O)(C(=O)CO)C[C@@H]3O[C@H]1C[C@H](N)[C@H](O)[C@H](C)O1 [Doxorubicin],88.38%,3.18 µg/mL,–,–,–,99.21%,1.38 µg/mL,–,1.53 µg/mL,–,> 40 µg/mL,–,3.44 µg/mL,–,> 50 µg/mL,–,–,–,"times lower activity towards PC3 than towards Du145 (PC3; doxorubicin, PC3 vs Du145): about 20"
